System: mouse plasma stability, LC-MS/MS, 48 h
Assay: Inhibitors of Bloom's syndrome helicase: Mouse Plasma Stability Profiling
Conditions: at 2 µM; hits give high values
Source text: Survival of cells and the faithful propagation of the genome depend on elaborate mechanisms of detecting and repairing DNA damage. Treatment of advanced cancer relies on radiation therapy or chemotherapy, which kill cancer cells by causing extensive DNA damage. It is often found, that cancer cells develop resistance to therapy through enhanced activity of DNA repair functions; this has led to an increased interest in developing drugs that interfere with DNA repair, which could sensitize cancer cells to conventional therapy. Bloom syndrome helicase (BLM), is important in resolving abnormal DNA structures formed during replication or homologous recombination. Shutting down the expression of BLM leads to chromosomal instability and higher radiation sensitivity in cultured cells. After the completion of a qHTS campaign, secondary assays, and rounds of medicinal chemistry, a compound was identified to be further characterized through in vitro ADME assays. The stability of the lead compound in mouse plasma is tested because this parameter has a significant impact on many ADME-concerned properties of drugs, such as uptake, distribution, transport, and bioavailability. […]
2uM of compound is incubated in mouse plasma; the reference compound is procaine. Compounds are incubated at 37 deg C for the pre-determined time periods and the when aliquots are removed. Samples are analyzed with LC-MS/MS.

percent remaining: 100%
SMILES: O=C(Nc1ccc(F)c(C(F)(F)F)c1)Nc1nnc(-c2ccncc2)s1
